In ChEMBL document CHEMBL1201862, “PubChem BioAssay data set” (2004):
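A five-concentration, 48-hour dose response in 96-well plates underlies each endpoint, interpolated linearly between surrounding concentrations. The concentration for 50% growth inhibition is given as GI50.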 Calls of active or inactive are those of the source. No stated cut-off is given here; in the data, active = GI50 up to about 1.1 µM and inactive = higher.

What was measured:
Assay in all cases: NCI-60 cell line screen, 48 h
HL-60 = test system: HL-60
OVCAR-4 = test system: OVCAR-4
RPMI-8226 = test system: RPMI-8226
786-0 = test system: 786-0
HOP-18 = test system: HOP-18
SF-295 = test system: SF-295
OVCAR-8 = test system: OVCAR-8
OVCAR-3 = test system: OVCAR-3
NCI-H460 = test system: NCI-H460
ACHN = test system: ACHN
TK-10 = test system: TK-10
LXFL 529 = test system: LXFL 529
NCI-H23 = test system: NCI-H23
HOP-92 = test system: HOP-92
SW-620 = test system: SW-620
MOLT-4 = test system: MOLT-4
SNB-75 = test system: SNB-75
KM12 = test system: KM12
SNB-78 = test system: SNB-78
M14 = test system: M14
SNB-19 = test system: SNB-19
UO-31 = test system: UO-31
DLD-1 = test system: DLD-1
U-251 = test system: U-251
UACC-257 = test system: UACC-257
UACC-62 = test system: UACC-62
OVCAR-5 = test system: OVCAR-5
HCC 2998 = test system: HCC 2998
HOP-62 = test system: HOP-62
NCI-H226 = test system: NCI-H226
RXF 393 = test system: RXF 393
EKVX = test system: EKVX
COLO 205 = test system: COLO 205
SK-MEL-5 = test system: SK-MEL-5
A498 = test system: A498
KM-20L2 = test system: KM-20L2
XF498 = test system: XF498
HT-29 = test system: HT-29
RXF 631 = test system: RXF 631
IGROV-1 = test system: IGROV-1
HCT-15 = test system: HCT-15
SN12C = test system: SN12C
CCRF-CEM = test system: CCRF-CEM
SK-OV-3 = test system: SK-OV-3
A549 = test system: A549
Malme-3M = test system: Malme-3M
M19-MEL = test system: M19-MEL
CAKI-1 = test system: CAKI-1
SF-539 = test system: SF-539
HCT-116 = test system: HCT-116
K562 = test system: K562
LOX IMVI = test system: LOX IMVI
SK-MEL-2 = test system: SK-MEL-2
DMS-273 = test system: DMS-273
NCI-H522 = test system: NCI-H522
DMS-114 = test system: DMS-114
SR = test system: SR
SK-MEL-28 = test system: SK-MEL-28
SF-268 = test system: SF-268

## O=C1c2cccc3cc([N+](=O)[O-])cc(c23)C(=O)N1CCCN1CCN(CCCN2C(=O)c3cccc4cc([N+](=O)[O-])cc(c34)C2=O)CC1
HL-60
  GI50: 0.34 µM (active)
OVCAR-4
  GI50: 0.0925 µM (active)
RPMI-8226
  GI50: 0.0887 µM (active)
786-0
  GI50: 0.0594 µM (active)
HOP-18
  GI50: 1.77 µM (inactive)
SF-295
  GI50: 0.0386 µM (active)
OVCAR-8
  GI50: < 0.01 µM (active)
OVCAR-3
  GI50: 1.09 µM (active)
NCI-H460
  GI50: 0.0142 µM (active)
ACHN
  GI50: < 0.01 µM (active)
TK-10
  GI50: 0.798 µM (active)
LXFL 529
  GI50: 0.0349 µM (active)
NCI-H23
  GI50: 0.859 µM (active)
HOP-92
  GI50: 0.237 µM (active)
SW-620
  GI50: 0.0284 µM (active)
MOLT-4
  GI50: 0.027 µM (active)
SNB-75
  GI50: 1.38 µM (inactive)
KM12
  GI50: 0.063 µM (active)
SNB-78
  GI50: 0.303 µM (active)
M14
  GI50: 0.706 µM (active)
SNB-19
  GI50: 0.122 µM (active)
UO-31
  GI50: 0.0695 µM (active)
DLD-1
  GI50: 0.0453 µM (active)
U-251
  GI50: 0.0248 µM (active)
UACC-257
  GI50: 0.585 µM (active)
UACC-62
  GI50: 0.0579 µM (active)
OVCAR-5
  GI50: 1.65 µM (inactive)
HCC 2998
  GI50: 0.0625 µM (active)
HOP-62
  GI50: 2.88 µM (inactive)
NCI-H226
  GI50: 0.0702 µM (active)
RXF 393
  GI50: 0.0933 µM (active)
EKVX
  GI50: 0.612 µM (active)
COLO 205
  GI50: 0.108 µM (active)
SK-MEL-5
  GI50: 0.0853 µM (active)
A498
  GI50: 0.272 µM (active)
KM-20L2
  GI50: 0.45 µM (active)
XF498
  GI50: 0.0966 µM (active)
HT-29
  GI50: < 0.01 µM (active)
RXF 631
  GI50: 0.0344 µM (active)
IGROV-1
  GI50: 0.0628 µM (active)
HCT-15
  GI50: 0.0495 µM
SN12C
  GI50: 0.08 µM (active)
CCRF-CEM
  GI50: 0.0803 µM (active)
SK-OV-3
  GI50: 2.59 µM (inactive)
A549
  GI50: 0.0381 µM (active)
Malme-3M
  GI50: 0.571 µM (active)
M19-MEL
  GI50: 0.0931 µM (active)
CAKI-1
  GI50: 0.0293 µM (active)
SF-539
  GI50: 0.313 µM (active)
HCT-116
  GI50: < 0.01 µM (active)
K562
  GI50: 0.0232 µM (active)
LOX IMVI
  GI50: 0.0234 µM (active)
SK-MEL-2
  GI50: 0.23 µM (active)

## CNS(=O)(=O)NN(C)S(=O)(=O)c1ccc(Br)cc1
HL-60
  GI50: > 100 µM (inactive)
OVCAR-4
  GI50: > 100 µM (inactive)
RPMI-8226
  GI50: > 100 µM (inactive)
786-0
  GI50: > 100 µM (inactive)
SF-295
  GI50: > 100 µM (inactive)
OVCAR-8
  GI50: > 100 µM (inactive)
OVCAR-3
  GI50: > 100 µM (inactive)
ACHN
  GI50: > 100 µM (inactive)
TK-10
  GI50: > 100 µM (inactive)
LXFL 529
  GI50: > 100 µM (inactive)
NCI-H23
  GI50: > 100 µM (inactive)
SW-620
  GI50: > 100 µM (inactive)
MOLT-4
  GI50: > 100 µM (inactive)
SNB-75
  GI50: > 100 µM (inactive)
KM12
  GI50: > 100 µM (inactive)
M14
  GI50: > 100 µM (inactive)
SNB-19
  GI50: > 100 µM (inactive)
UO-31
  GI50: > 100 µM (inactive)
DLD-1
  GI50: > 10 µM (inactive)
U-251
  GI50: 72.9 µM (inactive)
UACC-257
  GI50: > 100 µM (inactive)
UACC-62
  GI50: > 100 µM (inactive)
HCC 2998
  GI50: > 100 µM (inactive)
HOP-62
  GI50: > 100 µM (inactive)
NCI-H226
  GI50: > 100 µM (inactive)
DMS-273
  GI50: > 100 µM (inactive)
RXF 393
  GI50: > 100 µM (inactive)
EKVX
  GI50: > 100 µM (inactive)
COLO 205
  GI50: > 100 µM (inactive)
SK-MEL-5
  GI50: > 100 µM (inactive)
A498
  GI50: > 100 µM (inactive)
KM-20L2
  GI50: > 100 µM (inactive)
XF498
  GI50: > 100 µM (inactive)
HT-29
  GI50: > 100 µM (inactive)
RXF 631
  GI50: > 100 µM (inactive)
NCI-H522
  GI50: > 100 µM (inactive)
IGROV-1
  GI50: > 100 µM (inactive)
HCT-15
  GI50: > 100 µM
SN12C
  GI50: > 100 µM (inactive)
CCRF-CEM
  GI50: > 100 µM (inactive)
A549
  GI50: > 100 µM (inactive)
Malme-3M
  GI50: > 100 µM (inactive)
M19-MEL
  GI50: > 100 µM (inactive)
CAKI-1
  GI50: > 100 µM (inactive)
DMS-114
  GI50: > 100 µM (inactive)
SF-539
  GI50: > 100 µM (inactive)
HCT-116
  GI50: > 100 µM (inactive)
K562
  GI50: > 100 µM (inactive)
LOX IMVI
  GI50: > 100 µM (inactive)
SK-MEL-2
  GI50: > 100 µM (inactive)
SR
  GI50: > 100 µM (inactive)

## O[C@]12CCCC[C@H]1CCC2
HL-60
  GI50: > 100 µM (inactive)
SK-MEL-28
  GI50: > 100 µM (inactive)
OVCAR-4
  GI50: > 100 µM (inactive)
SF-268
  GI50: > 100 µM (inactive)
RPMI-8226
  GI50: > 100 µM (inactive)
786-0
  GI50: > 100 µM (inactive)
SF-295
  GI50: > 100 µM (inactive)
OVCAR-8
  GI50: > 100 µM (inactive)
OVCAR-3
  GI50: > 100 µM (inactive)
NCI-H460
  GI50: > 100 µM (inactive)
ACHN
  GI50: > 100 µM (inactive)
TK-10
  GI50: > 100 µM (inactive)
LXFL 529
  GI50: > 100 µM (inactive)
NCI-H23
  GI50: > 100 µM (inactive)
HOP-92
  GI50: > 100 µM (inactive)
SW-620
  GI50: > 100 µM (inactive)
MOLT-4
  GI50: > 100 µM (inactive)
SNB-75
  GI50: > 100 µM (inactive)
KM12
  GI50: > 100 µM (inactive)
SNB-78
  GI50: > 100 µM (inactive)
M14
  GI50: > 100 µM (inactive)
SNB-19
  GI50: > 100 µM (inactive)
UO-31
  GI50: > 100 µM (inactive)
U-251
  GI50: > 100 µM (inactive)
UACC-257
  GI50: > 100 µM (inactive)
UACC-62
  GI50: > 100 µM (inactive)
OVCAR-5
  GI50: > 100 µM (inactive)
HCC 2998
  GI50: > 100 µM (inactive)
HOP-62
  GI50: > 100 µM (inactive)
DMS-273
  GI50: > 100 µM (inactive)
RXF 393
  GI50: > 100 µM (inactive)
EKVX
  GI50: > 100 µM (inactive)
COLO 205
  GI50: > 100 µM (inactive)
SK-MEL-5
  GI50: > 100 µM (inactive)
A498
  GI50: > 100 µM (inactive)
XF498
  GI50: > 100 µM (inactive)
HT-29
  GI50: > 100 µM (inactive)
RXF 631
  GI50: > 100 µM (inactive)
NCI-H522
  GI50: > 100 µM (inactive)
IGROV-1
  GI50: > 100 µM (inactive)
HCT-15
  GI50: > 100 µM
SN12C
  GI50: > 100 µM (inactive)
CCRF-CEM
  GI50: > 100 µM (inactive)
SK-OV-3
  GI50: > 100 µM (inactive)
A549
  GI50: > 100 µM (inactive)
Malme-3M
  GI50: > 100 µM (inactive)
M19-MEL
  GI50: > 100 µM (inactive)
CAKI-1
  GI50: > 100 µM (inactive)
DMS-114
  GI50: > 100 µM (inactive)
SF-539
  GI50: > 100 µM (inactive)
HCT-116
  GI50: > 100 µM (inactive)
K562
  GI50: > 100 µM (inactive)
LOX IMVI
  GI50: > 100 µM (inactive)
SK-MEL-2
  GI50: > 100 µM (inactive)
